Results: patent US20160319277A1, “METHODS OF IMPROVED PROTEIN PRODUCTION USING MIRNAs AND SIRNAs” (THE JOHNS HOPKINS UNIVERSITY, priority 2015, published 2016)

Test system: HEK-CMV-Luc2-Hygro cells
Assay: High-throughput genome-wide siRNA screen and validation screen for luciferase expression
Assay type: cell-based, human
Settings: for Viable cell density (%) / per cell luciferase yield (%): Table 4, primary screen, 72 h, negative control = 100%; for Luciferase activity (%) / Per cell luciferase yield (%) / Viable cell number (%): Table 6, polyamine pathway gene siRNAs
Summary of the method: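 HEK cells with CMV-driven luciferase were reverse-transfected with 0.8 pmol siRNA per well (3 per gene) via RNAiMax and grown 72 h at 37 °C. Duplicate wells read for luciferase (ONE-Glo) and viability (CellTiter-Glo). Values given as % of plate negative-control median with MAD-based z-scores; hits with ≥2 siRNAs at z>3 retested using 3 new siRNAs.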

Substance	Viable cell density (%)	per cell luciferase yield (%)	Luciferase activity (%)	Per cell luciferase yield (%)	Viable cell number (%)
181 (GCUAAGUCUUUUCCACAGUTT; chemistry not given here; listed as Homo sapiens) [compound 181]	94.537	155.385	–	–	–
182 (CAGUUACUUUCAAAACUCUTT; chemistry not given here; listed as Homo sapiens) [compound 182]	91.714	202.960	–	–	–
183 (CAACAGAUCAGAGAACAAATT; chemistry not given here; listed as Homo sapiens) [compound 183]	92.429	156.418	–	–	–
184 (GCCUGAAUCUUGUCCCAAATT; chemistry not given here; listed as Homo sapiens) [compound 184]	82.390	228.483	–	–	–
185 (GAAGAAGACUCUGUACUCATT; chemistry not given here; listed as Homo sapiens) [compound 185]	66.511	215.853	–	–	–
186 (CGAAACUUGUCAACGGGAATT; chemistry not given here; listed as Homo sapiens) [compound 186]	104.553	179.207	–	–	–
187 (AGAAAGCUUUGGGCAAAUATT; chemistry not given here; listed as Homo sapiens) [compound 187]	75.570	200.070	–	–	–
188 (GGAAGAACGUCUUGCACAATT; chemistry not given here; listed as Homo sapiens) [compound 188]	85.471	183.071	–	–	–
189 (GAACAAAAUAGACCUCUUATT; chemistry not given here; listed as Homo sapiens) [compound 189]	101.897	162.677	–	–	–
190 (CUGUGGAAAAGAUACCGUATT; chemistry not given here; listed as Homo sapiens) [compound 190]	95.368	152.850	–	–	–
191 (GCCCACUAUUCUCAGCUCATT; chemistry not given here; listed as Homo sapiens) [compound 191]	66.121	214.156	–	–	–
192 (GCAUCUGUCCGAUCGCUCUTT; chemistry not given here; listed as Homo sapiens) [compound 192]	105.514	143.889	–	–	–
193 (GGGACACUGUCAACCUCUATT; chemistry not given here; listed as Homo sapiens) [compound 193]	74.811	205.132	–	–	–
194 (CAUCAAGCCCUGUAAGUCUTT; chemistry not given here; listed as Homo sapiens) [compound 194]	89.583	163.431	–	–	–
195 (UGAAGAUAAUCGAGAAAUATT; chemistry not given here; listed as Homo sapiens) [compound 195]	67.947	258.104	–	–	–
196 (ACAGGUCUUUAUCAAAGCATT; chemistry not given here; listed as Homo sapiens) [compound 196]	100.201	153.426	–	–	–
197 (GACUCAGAGUAACAACGCATT; chemistry not given here; listed as Homo sapiens) [compound 197]	95.471	162.372	–	–	–
198 (GCCUAGGAGUUAUCCUCUATT; chemistry not given here; listed as Homo sapiens) [compound 198]	112.248	137.554	–	–	–
199 (CUAACUACCCAGACCCUUATT; chemistry not given here; listed as Homo sapiens) [compound 199]	88.359	164.639	–	–	–
200 (GCAACAGAAUCGAGCAAGATT; chemistry not given here; listed as Homo sapiens) [compound 200]	105.583	154.286	–	–	–
201 (CCCUGAAGGUUACCUCUUUTT; chemistry not given here; listed as Homo sapiens) [compound 201]	63.690	273.535	–	–	–
202 (GGAUGACGAGCUGAACUUUTT; chemistry not given here; listed as Homo sapiens) [compound 202]	113.437	140.103	–	–	–

Substance	Viable cell density (%)	per cell luciferase yield (%)	Luciferase activity (%)	Per cell luciferase yield (%)	Viable cell number (%)
203 (GAUUACUUCUUGACUAUCATT; chemistry not given here; listed as Homo sapiens) [compound 203]	123.199	150.843	–	–	–
204 (CUCCCGCAGUUGAACAUCATT; chemistry not given here; listed as Homo sapiens) [compound 204]	109.377	136.174	–	–	–
205 (CUCUGAUUGUCACCUCUUATT; chemistry not given here; listed as Homo sapiens) [compound 205]	61.943	281.113	–	–	–
206 (GCUCCUCUGUUACCACAGATT; chemistry not given here; listed as Homo sapiens) [compound 206]	91.526	179.268	–	–	–
207 (CGCUCACCAACAGCAGAAATT; chemistry not given here; listed as Homo sapiens) [compound 207]	102.629	146.756	–	–	–
208 (CUUUUAAUGUUAAACUACATT; chemistry not given here; listed as Homo sapiens) [compound 208]	110.986	133.601	–	–	–
209 (GAACUUCACAAGUUCCUCATT; chemistry not given here; listed as Homo sapiens) [compound 209]	84.418	228.634	–	–	–
210 (CAAUGGAACAAUCAAAGUUTT; chemistry not given here; listed as Homo sapiens) [compound 210]	89.607	180.764	–	–	–
211 (GGAUUACAGAAACUCCUAUTT; chemistry not given here; listed as Homo sapiens) [compound 211]	82.634	188.258	–	–	–
212 (GAGCAGAGAUCAUAACCAATT; chemistry not given here; listed as Homo sapiens) [compound 212]	108.211	141.104	–	–	–
213 (GGCUGAAUGUAACAGAGGATT; chemistry not given here; listed as Homo sapiens) [compound 213]	–	–	127.6	134.5	94.9
214 (CCGUAGACUCGCUCAUCUCTT; chemistry not given here; listed as Homo sapiens) [compound 214]	–	–	174.4	204.2	85.4
215 (GCUAACUUAUUCUACUCCGTT; chemistry not given here; listed as Homo sapiens) [compound 215]	–	–	171.1	154.7	110.6
216 (GGGAAUAGUCAGAGGGAUCTT; chemistry not given here; listed as Homo sapiens) [compound 216]	–	–	92.8	90.4	102.7
217 (ACAUCGUCCACUUCCAGUATT; chemistry not given here; listed as Homo sapiens) [compound 217]	–	–	97.4	101.1	96.3
218 (GGACCUCCCUGUGAAUGAUTT; chemistry not given here; listed as Homo sapiens) [compound 218]	–	–	95.4	110.9	86.0
219 (CAGAUGGAUUAUUAGCUGATT; chemistry not given here; listed as Homo sapiens) [compound 219]	–	–	94.9	90.0	105.4
220 (CCGGGAAAGUUUGACUGCATT; chemistry not given here; listed as Homo sapiens) [compound 220]	–	–	101.5	133.9	75.8
221 (CCACGACCAGCUUAAAGAATT; chemistry not given here; listed as Homo sapiens) [compound 221]	–	–	90.5	94.5	95.76
222 (GACUUUCACUUCCGCCUUATT; chemistry not given here; listed as Homo sapiens) [compound 222]	–	–	74.3	84.7	87.7
223 (GAUGACUUUUGAUAGUGAATT; chemistry not given here; listed as Homo sapiens) [compound 223]	–	–	18.0	32.1	56.1
